Test results published in publication PMC9653804, “Multifunctional Derivatives of Spiropyrrolidine Tethered Indeno-Quinoxaline Heterocyclic Hybrids as Potent Antimicrobial, Antioxidant and Antidiabetic Agents: Design, Synthesis, In Vitro and In Silico Approaches” (Molecules, 2022).
≈ marks a conversion by molar mass, not a printed value.

Tests used:
[1] = Ferric reducing power assay (FRAP)
[2] = system: Micrococccus luteus NCIMB 8166; assay: Antimicrobial activity (MIC, MBC) against M. luteus; format: cell-based; conditions: M. luteus NCIMB 8166, '-' = No activity; for MIC: Micrococcus luteus, NCIMB8166
[3] = system: Staphylococcus aureus ATCC 25923; assay: Antimicrobial activity (MIC, MBC) against S. aureus; format: cell-based; conditions: S. aureus ATCC 25923; for MBC/MIC: bactericidal ≤ 4, bacteriostatic > 4; for MIC: Staphylococcus aureus, ATCC25923, '-' = No activity
[4] = Radical scavenging activity ABTS; conditions: for IC50: ABTS radical scavenging; for ABTS scavenging activity, fold higher than Trolox: relative to standard Trolox
Protocol: The ABTS assay was performed as previously described by Tuberoso et al.. ABTS^+ radical was generated by oxidation of ABTS with potassium persulfate. The blue–green ABTS was produced through the reaction between 2 mM ABTS and […] potassium persulfate in water. The mixture was left to stand in the dark for 12 to 16 h before use. The ABTS solution was diluted with methanol to an absorbance of 0.700 ± 0.005 at 734 nm. Then 2 mL of diluted ABTS solution was mixed with 100 μL of samples and absorbance was measured after 1 min incubation at room temperature. A standard curve was obtained by using Trolox as standard solution. The results were expressed as μM Trolox equivalent.
The mixture of 7 mmol/L aqueous ABTS solution with 2.45 mmol/L potassium persulfate solution constitutes a stable ABTS^+ stock solution that was allowed to stand in the dark and at room temperature for 12 to 16 h before use. A 1 mL sample of the diluted ABTS solution (adjusted to 0.7 ± 0.02 at […]) was added to 10 μL of each product. The absorbance was determined after 6 min. The percentage inhibition of the ABTS˙ radical was calculated from the following equation:% inhibition = (Abscontrol − Abstest)/Abscontrol × 100
Abs control: the control absorbance.
Abs test: the absorbance of the test sample after 6 min.

[5] = DPPH free radical scavenging activity; conditions: DPPH radical scavenging
Protocol: DPPH, the stable artificial free radicals, has been widely used for the measurement of free radical scavenging capacity of the compounds in ethanol and aqueous systems. Briefly, 2 mL DPPH solution (0.2 mM, in 95% ethanol) was incubated with 2 mL different concentrations of compounds solution. Then, the reaction mixture was shaken and incubated in the dark for 40 min at room temperature. The absorbance was immediately recorded at 517 nm against ethanol with a spectrophotometer (Metash, model UV-5200, Shanghai Xiwen Biotech. Co., Ltd, Shanghai, China). The DPPH free radical scavenging rate was calculated using the equation:DPPH scavenging activity (%) = A0 − A1/A0 × 100 where A0 was the absorbance of the control reaction (containing all reagents except the tested compound), and A1 was the absorbance of the test reaction (containing all reagents with the tested compound). The percentage of DPPH radical scavenging activity was plotted against the sample concentration to acquire the IC50 value, defined as the concentration of sample necessary to cause 50% inhibition. Radical scavenging activity (RSA) was calculated from the IC50 value as the equation: RSA = pIC50 = −lg[IC50]. The smaller the IC50 value, the larger is the RSA value and the higher is the antioxidant activity.

[6] = system: Escherichia coli ATCC 25922; assay: Antimicrobial activity (MIC, MBC) against E. coli; format: cell-based; conditions: E. coli ATCC 25922; '-' = No activity
Candida krusei ATCC 6258 = assay: Antifungal activity (MIC, MFC) against C. krusei; format: cell-based; conditions: C. krusei ATCC 6258, '-' = No activity; for MFC / MIC: Pichia kudriavzevii, ATCC6258
[7] = system: Candida albicans ATCC 90028; assay: Antifungal activity (MIC, MFC) against C. albicans; format: cell-based; conditions: C. albicans ATCC 90028, '-' = No activity; for MFC/MIC: fungicidal ≤ 4, fungistatic > 4; for MIC / MFC: Candida albicans, ATCC90028
[8] = system: Pseudomonas aeruginosa ATCC 27853; assay: Antimicrobial activity (MIC, MBC) against P. aeruginosa; format: cell-based; conditions: P. aeruginosa ATCC 27853, '-' = No activity

SMILES	IC50 [1]	MBC/MIC [2]	MIC [3]	IC50 [4]	IC50 [5]	MBC/MIC [6]	MFC/MIC (Candida krusei ATCC 6258)	MIC (Candida krusei ATCC 6258)	melting point	MIC [7]	MBC/MIC [8]	MIC [2]	MIC ([8]; Pseudomonas aeruginosa, ATCC27853)	MBC/MIC [3]	MFC (Candida krusei ATCC 6258)	MFC/MIC [7]	ABTS scavenging activity, fold higher than Trolox [4]	MFC [7]
CN1C(=O)CC2(C1=O)C(c1ccccc1)CN(C)C21c2ccccc2-c2nc3ccccc3nc21 (stereo not shown) [5a, Spiro [2,11″]indeno-[1,2b]-quinoxaline-spiro-[3,3′]-N-methylsuccinimide-4-(phenyl)hexahydro-1H-pyrrolidines]	17 ± 0.52 µM			49.19 ± 0.46 µM	15.4 ± 0.65 µM	2	1	67.6 mM (≈ 31.1 mg/mL)	173 to 175 °C		4			2	67.6 mM (≈ 31.1 mg/mL)	1		
Cc1c(C)c2c(c(C)c1O)CCC(C)(C(=O)O)O2 (stereo not shown) [Trolox, reference compound]	41.9 ± 2.07 µM			99.88 ± 0.31 µM	31.2 ± 3.67 µM													
Cc1ccc(C2CN(C)C3(c4ccccc4-c4nc5ccccc5nc43)C23CC(=O)N(C)C3=O)cc1 (stereo not shown) [5b, Spiro [2,11″]indeno-[1,2b]-quinoxaline-spiro-[3,3′]-N-methylsuccinimide-4-(4-methylphenyl)hexahydro-1H-pyrrolidines]	63.26 ± 0.21 µM		65.6 mM (≈ 31.1 mg/mL)	57.51 ± 0.55 µM	33.74 ± 0.004 µM	2	1	65.6 mM (≈ 31.1 mg/mL)	183 to 185 °C		4			8	65.6 mM (≈ 31.1 mg/mL)	2		
CN(C)[C@@H]1C(O)=C(C(N)=O)C(=O)[C@@]2(O)C(O)=C3C(=O)c4c(O)cccc4[C@@](C)(O)[C@H]3C[C@@H]12 [Tetracycline, reference compound]		2				1					2			2				
C[C@@H]1[C@H](O)[C@@H](C)/C=C/C=C/C=C/C=C/C=C/C=C/C=C/[C@H](O[C@@H]2O[C@H](C)[C@@H](O)[C@H](N)[C@@H]2O)C[C@@H]2O[C@](O)(C[C@@H](O)C[C@@H](O)[C@H](O)CC[C@@H](O)C[C@@H](O)CC(=O)O[C@H]1C)C[C@H](O)[C@H]2C(=O)O [Amphotericin B, reference compound]							1	5.41 mM (≈ 5 mg/mL)		5.41 mM (≈ 5 mg/mL)					5.41 mM (≈ 5 mg/mL)	1		5.41 mM (≈ 5 mg/mL)
COc1ccc(C2CN(C)C3(c4ccccc4-c4nc5ccccc5nc43)C23CC(=O)N(C)C3=O)cc1OC (stereo not shown) [5j, Spiro [2,11″]indeno-[1,2b]-quinoxaline-spiro-[3,3′]-N-methylsuccinimide-4-(3,4-dimethoxyphenyl)hexahydro-1H-pyrrolidines]	5.98 ± 0.17 µM	2	14.9 mM (≈ 7.78 mg/mL)	11.56 ± 0.05 µM	19.2 ± 0.19 µM	2	1	59.8 mM (≈ 31.1 mg/mL)	211 to 213 °C		2			32	59.8 mM (≈ 31.1 mg/mL)	2		

Further lines, with some results ahead:

IC50 [1]	MBC/MIC [2]	MIC [3]	IC50 [4]	IC50 [5]	MBC/MIC [6]	MFC/MIC (Candida krusei ATCC 6258)	MIC (Candida krusei ATCC 6258)	melting point	MIC [7]	MBC/MIC [8]	MIC [2]	MIC ([8]; Pseudomonas aeruginosa, ATCC27853)	SMILES	MBC/MIC [3]	MFC (Candida krusei ATCC 6258)	MFC/MIC [7]	ABTS scavenging activity, fold higher than Trolox [4]	MFC [7]
3.26 ± 0.45 µM	2	28 mM (≈ 15.6 mg/mL)	15.2 ± 0.31 µM	15.3 ± 0.37 µM	2	1	28 mM (≈ 15.6 mg/mL)	189 to 191 °C	56.1 mM (≈ 31.1 mg/mL)	4			CN1C(=O)CC2(C1=O)C(c1ccc(O)c(Br)c1)CN(C)C21c2ccccc2-c2nc3ccccc3nc21 (stereo not shown) [5l, Spiro [2,11″]indeno-[1,2b]-quinoxaline-spiro-[3,3′]-N-methylsuccinimide-4-(3-bromo-4-hydroxy-phenyl)hexahydro-1H-pyrrolidines]	16	28 mM (≈ 15.6 mg/mL)	8		
7.93 ± 0.44 µM			18.1 ± 0.53 µM	16.1 ± 0.39 µM	2	1	57.7 mM (≈ 31.1 mg/mL)	200 to 202 °C	57.7 mM (≈ 31.1 mg/mL)	2			CN1C(=O)CC2(C1=O)C(c1ccc(Br)cc1)CN(C)C21c2ccccc2-c2nc3ccccc3nc21 (stereo not shown) [5f, Spiro [2,11″]indeno-[1,2b]-quinoxaline-spiro-[3,3′]-N-methylsuccinimide-4-(4-bromophenyl)hexahydro-1H-pyrrolidines]	2	57.7 mM (≈ 31.1 mg/mL)	1	~6 fold	57.7 mM (≈ 31.1 mg/mL)
8.09 ± 0.82 µM	4	3.95 mM (≈ 1.94 mg/mL)	9.78 ± 0.3 µM	7.44 ± 0.15 µM	4	1	15.8 mM (≈ 7.78 mg/mL)	179 to 181 °C	31.7 mM (≈ 15.6 mg/mL)	4	63.4 mM (≈ 31.1 mg/mL)		COc1ccc(C2CN(C)C3(c4ccccc4-c4nc5ccccc5nc43)C23CC(=O)N(C)C3=O)cc1 (stereo not shown) [5d, Spiro [2,11″]indeno-[1,2b]-quinoxaline-spiro-[3,3′]-N-methylsuccinimide-4-(4-methoxyphenyl)hexahydro-1H-pyrrolidines]	32	15.8 mM (≈ 7.78 mg/mL)	4		
7.38 ± 0.14 µM		24.5 mM (≈ 15.6 mg/mL)	14.6 ± 0.26 µM	47.29 ± 0.06 µM	1	1	49.1 mM (≈ 31.1 mg/mL)	214 to 216 °C	98.2 mM (≈ 62.3 mg/mL)	4	98.2 mM (≈ 62.3 mg/mL)	98.2 mM (≈ 62.3 mg/mL)	CN1C(=O)CC2(C1=O)C(c1cc(Br)c(O)c(Br)c1)CN(C)C21c2ccccc2-c2nc3ccccc3nc21 (stereo not shown) [5m, Spiro [2,11″]indeno-[1,2b]-quinoxaline-spiro-[3,3′]-N-methylsuccinimide-4-(3,5-dibromo-4-hydroxyphenyl)hexahydro-1H-pyrrolidines]	8	49.1 mM (≈ 31.1 mg/mL)	1		98.2 mM (≈ 62.3 mg/mL)
20.5 ± 0.6 µM		16.2 mM (≈ 7.78 mg/mL)	7.19 ± 0.11 µM	26 ± 0.5 µM	2	1	32.5 mM (≈ 15.6 mg/mL)	205 to 207 °C	65 mM (≈ 31.1 mg/mL)	2			CN1C(=O)CC2(C1=O)C(c1ccc(F)cc1)CN(C)C21c2ccccc2-c2nc3ccccc3nc21 (stereo not shown) [5g, Spiro [2,11″]indeno-[1,2b]-quinoxaline-spiro-[3,3′]-N-methylsuccinimide-4-(4-fluorophenyl)hexahydro-1H-pyrrolidines]	16	32.5 mM (≈ 15.6 mg/mL)	1	about 14 fold	65 mM (≈ 31.1 mg/mL)
6.03 ± 0.12 µM		54.7 mM (≈ 31.1 mg/mL)	7.69 ± 0.36 µM	123.4 ± 0.45 µM	2	1	54.7 mM (≈ 31.1 mg/mL)	209 to 211 °C		2			COc1ccc(C2CN(C)C3(c4ccccc4-c4nc5ccccc5nc43)C23CC(=O)N(C)C3=O)cc1Br (stereo not shown) [5k, Spiro [2,11″]indeno-[1,2b]-quinoxaline-spiro-[3,3′]-N-methylsuccinimide-4-(3-bromo-4-methoxyphenyl)hexahydro-1H-pyrrolidines]	8	54.7 mM (≈ 31.1 mg/mL)	1		
3.69 ± 0.72 µM		31.7 mM (≈ 15.6 mg/mL)	7.03 ± 0.07 µM	3.26 ± 0.32 µM		1	63.4 mM (≈ 31.1 mg/mL)	196 to 198 °C	63.4 mM (≈ 31.1 mg/mL)	2			COc1ccccc1C1CN(C)C2(c3ccccc3-c3nc4ccccc4nc32)C12CC(=O)N(C)C2=O (stereo not shown) [5c, Spiro [2,11″]indeno-[1,2b]-quinoxaline-spiro-[3,3′]-N-methylsuccinimide-4-(2 methoxyphenyl)hexahydro-1H-pyrrolidines]	16	63.4 mM (≈ 31.1 mg/mL)	1		63.4 mM (≈ 31.1 mg/mL)
